Results: ChEMBL document CHEMBL4177730, “Rational modification of semaxanib and sunitinib for developing a tumor growth inhibitor targeting ATP binding site of tyrosine kinase” (2018)
Activity calls are given as the source filed them. The rule behind the calls is not given here.

Tests used:
NCI-H522 = test: Growth inhibition of human NCI-H522 cells after 48 hrs by sulforhodamine B assay; format: functional; settings: NCI-H522, 48 h
CAKI-1 = test: Growth inhibition of human CAKI-1 cells at 10 uM after 48 hrs by sulforhodamine B assay; format: functional, cell-based
SNB-75 = test: Growth inhibition of human SNB75 cells after 48 hrs by sulforhodamine B assay; format: functional; settings: SNB-75, 48 h
NCI-H460 [1] = test: Growth inhibition of human NCI-H460 cells at 10 uM after 48 hrs by sulforhodamine B assay; format: functional, cell-based
U-251 [2] = test: Growth inhibition of human U251 cells at 10 uM after 48 hrs by sulforhodamine B assay; format: functional, cell-based
MDA-MB-435 = test: Growth inhibition of human MDA-MB-435 cells after 48 hrs by sulforhodamine B assay; format: functional; settings: MDA-MB-435, 48 h
KM12 [3] = test: Growth inhibition of human KM12 cells after 48 hrs by sulforhodamine B assay; format: functional; settings: KM12, 48 h
COLO 205 = test: Growth inhibition of human COLO205 cells at 10 uM after 48 hrs by sulforhodamine B assay; format: functional, cell-based
MDA-MB-231 = test: Growth inhibition of human MDA-MB-231 cells at 10 uM after 48 hrs by sulforhodamine B assay; format: functional, cell-based
HL-60(TB) = test: Growth inhibition of human HL-60(TB) cells after 48 hrs by sulforhodamine B assay; format: functional; settings: HL-60, 48 h
K562 = test: Growth inhibition of human K562 cells after 48 hrs by sulforhodamine B assay; format: functional; settings: K562, 48 h
HCC 2998 [4] = test: Growth inhibition of human HCC2998 cells after 48 hrs by sulforhodamine B assay; format: functional; settings: HCC 2998, 48 h
U-251 [5] = test: Growth inhibition of human U251 cells after 48 hrs by sulforhodamine B assay; format: functional; settings: U-251, 48 h
PC-3 = test: Growth inhibition of human PC3 cells after 48 hrs by sulforhodamine B assay; format: functional; settings: PC-3, 48 h
SK-MEL-28 [6] = test: Growth inhibition of human SK-MEL-28 cells at 10 uM after 48 hrs by sulforhodamine B assay; format: functional, cell-based
SF-295 = test: Growth inhibition of human SF295 cells at 10 uM after 48 hrs by sulforhodamine B assay; format: functional, cell-based
OVCAR-4 [7] = test: Growth inhibition of human OVCAR4 cells after 48 hrs by sulforhodamine B assay; format: functional; settings: OVCAR-4, 48 h
OVCAR-4 [8] = test: Growth inhibition of human OVCAR4 cells at 10 uM after 48 hrs by sulforhodamine B assay; format: functional, cell-based
HCC 2998 [9] = test: Growth inhibition of human HCC2998 cells at 10 uM after 48 hrs by sulforhodamine B assay; format: functional, cell-based
NCI-H460 [10] = test: Growth inhibition of human NCI-H460 cells after 48 hrs by sulforhodamine B assay; format: functional; settings: NCI-H460, 48 h
OVCAR-5 = test: Growth inhibition of human OVCAR5 cells at 10 uM after 48 hrs by sulforhodamine B assay; format: functional, cell-based
OVCAR-3 = test: Growth inhibition of human OVCAR3 cells at 10 uM after 48 hrs by sulforhodamine B assay; format: functional, cell-based
SF-268 = test: Growth inhibition of human SF268 cells at 10 uM after 48 hrs by sulforhodamine B assay; format: functional, cell-based
TK-10 = test: Growth inhibition of human TK10 cells after 48 hrs by sulforhodamine B assay; format: functional; settings: TK-10, 48 h
SF-539 = test: Growth inhibition of human SF539 cells after 48 hrs by sulforhodamine B assay; format: functional; settings: SF-539, 48 h
MOLT-4 [11] = test: Growth inhibition of human MOLT4 cells after 48 hrs by sulforhodamine B assay; format: functional; settings: MOLT-4, 48 h
SK-OV-3 = test: Growth inhibition of human SKOV3 cells after 48 hrs by sulforhodamine B assay; format: functional; settings: SK-OV-3, 48 h
M14 = test: Growth inhibition of human M14 cells at 10 uM after 48 hrs by sulforhodamine B assay; format: functional, cell-based
Hs-578T = test: Growth inhibition of human Hs 578T cells after 48 hrs by sulforhodamine B assay; format: functional
SK-MEL-28 [12] = test: Growth inhibition of human SK-MEL-28 cells after 48 hrs by sulforhodamine B assay; format: functional; settings: SK-MEL-28, 48 h
RPMI-8226 = test: Growth inhibition of human RPMI8226 cells after 48 hrs by sulforhodamine B assay; format: functional; settings: RPMI-8226, 48 h
KM12 [13] = test: Growth inhibition of human KM12 cells at 10 uM after 48 hrs by sulforhodamine B assay; format: functional, cell-based
IGROV-1 = test: Growth inhibition of human IGROV1 cells after 48 hrs by sulforhodamine B assay; format: functional; settings: IGROV-1, 48 h
MOLT-4 [14] = test: Growth inhibition of human MOLT4 cells at 10 uM after 48 hrs by sulforhodamine B assay; format: functional, cell-based
CCRF-CEM = test: Growth inhibition of human CCRF-CEM cells after 48 hrs by sulforhodamine B assay; format: functional
RXF 393 = test: Growth inhibition of human RXF393 cells at 10 uM after 48 hrs by sulforhodamine B assay; format: functional, cell-based
786-0 = test: Growth inhibition of human 786-0 cells after 48 hrs by sulforhodamine B assay; format: functional; settings: 786-0, 48 h
[15] = read-out: LC50 (the source's name)

Molecule `O=C1/C(=C\c2cccn2Cc2ccccc2)c2ccccc2N1c1c(Cl)cccc1Cl` has a GI50 (NCI-H522) of over 100 µM, a TGI (NCI-H522) of over 100 µM and a CC50 (NCI-H522; [15]) of over 100 µM. For the same molecule, the “growth inhibition (GI)” value (CAKI-1) was “Active”, the GI50 (SNB-75) was 5.24 µM and the TGI (SNB-75) was over 100 µM. For the same molecule, the CC50 (SNB-75; [15]) was over 100 µM, the “growth inhibition (GI)” value (NCI-H460 [1]) was “Active” and the “growth inhibition (GI)” value (U-251 [2]) was “Active”. The GI50 (MDA-MB-435) was over 100 µM, the TGI (MDA-MB-435) was over 100 µM and the CC50 (MDA-MB-435; [15]) was over 100 µM. The GI50 (KM12 [3]) was 380 nM, the TGI (KM12 [3]) was over 100 µM and the CC50 (KM12 [3]; [15]) was over 100 µM. For the same molecule, the “growth inhibition (GI)” value (COLO 205) was “Active”, the “growth inhibition (GI)” value (MDA-MB-231) was “Active” and the GI50 (HL-60(TB)) was over 100 µM. For the same molecule, the TGI (HL-60(TB)) was over 100 µM, the CC50 (HL-60(TB); [15]) was over 100 µM and the GI50 (K562) was over 100 µM. For the same molecule, the TGI (K562) was over 100 µM, the CC50 (K562; [15]) was over 100 µM and the GI50 (HCC 2998 [4]) was 870 nM. The TGI (HCC 2998 [4]) was over 100 µM, the CC50 (HCC 2998 [4]; [15]) was over 100 µM and the GI50 (U-251 [5]) was over 100 µM. For the same molecule, the TGI (U-251 [5]) was over 100 µM, the CC50 (U-251 [5]; [15]) was over 100 µM and the GI50 (PC-3) was 6.91 µM. The TGI (PC-3) was over 100 µM, the CC50 (PC-3; [15]) was over 100 µM and the “growth inhibition (GI)” value (SK-MEL-28 [6]) was “Active”. The “growth inhibition (GI)” value (SF-295) was “Active”, the GI50 (OVCAR-4 [7]) was 120 nM and the TGI (OVCAR-4 [7]) was over 100 µM. For the same molecule, the CC50 (OVCAR-4 [7]; [15]) was over 100 µM, the “growth inhibition (GI)” value (OVCAR-4 [8]) was “Active” and the “growth inhibition (GI)” value (HCC 2998 [9]) was “Active”. The GI50 (NCI-H460 [10]) was 4.16 µM, the TGI (NCI-H460 [10]) was over 100 µM and the CC50 (NCI-H460 [10]; [15]) was over 100 µM. For the same molecule, the “growth inhibition (GI)” value (OVCAR-5) was “Active”, the “growth inhibition (GI)” value (OVCAR-3) was “Active” and the “growth inhibition (GI)” value (SF-268) was “Active”. The GI50 (TK-10) was 640 nM, the TGI (TK-10) was over 100 µM and the CC50 (TK-10; [15]) was over 100 µM. For the same molecule, the GI50 (SF-539) was over 100 µM, the TGI (SF-539) was over 100 µM and the CC50 (SF-539; [15]) was over 100 µM. It also gave a GI50 (MOLT-4 [11]) of over 100 µM, a TGI (MOLT-4 [11]) of over 100 µM and a CC50 (MOLT-4 [11]; [15]) of over 100 µM. The GI50 (SK-OV-3) was over 100 µM, the TGI (SK-OV-3) was over 100 µM and the CC50 (SK-OV-3; [15]) was over 100 µM. The “growth inhibition (GI)” value (M14) was “Active”, the GI50 (Hs-578T) was over 100 µM and the TGI (Hs-578T) was over 100 µM. The CC50 (Hs-578T; [15]) was over 100 µM, the GI50 (SK-MEL-28 [12]) was over 100 µM and the TGI (SK-MEL-28 [12]) was over 100 µM. The CC50 (SK-MEL-28 [12]; [15]) was over 100 µM, the GI50 (RPMI-8226) was 1280 nM and the TGI (RPMI-8226) was over 100 µM. The CC50 (RPMI-8226; [15]) was over 100 µM, the “growth inhibition (GI)” value (KM12 [13]) was “Active” and the GI50 (IGROV-1) was 540 nM. The TGI (IGROV-1) was over 100 µM, the CC50 (IGROV-1; [15]) was over 100 µM and the “growth inhibition (GI)” value (MOLT-4 [14]) was “Active”. The GI50 (CCRF-CEM) was over 100 µM, the TGI (CCRF-CEM) was over 100 µM and the CC50 (CCRF-CEM; [15]) was over 100 µM. The “growth inhibition (GI)” value (RXF 393) was “Active”, the GI50 (786-0) was over 100 µM and the TGI (786-0) was over 100 µM. It also gave a CC50 (786-0; [15]) of over 100 µM.
